Data set [1] is described as follows: Solubility was determined. It counts as physicochemical.
A short description of data set [2]: Partition coefficient (logP). Particulars: octanol/water. The format is physicochemical.
Data set [3] can be described thus: Pharmacokinetic property (Vdss) for the compound (5 mg/kg iv) was determined in rats. Particulars: rat, in vivo, read-out: Vdss. The format is ADME, organism-based.
Data set [4] is described as follows: Oral bioavailability in rat (dose 20 mg/kg p.o.). The format is ADME, organism-based. The note with it: in vivo.
Data set [5] can be described thus: Pharmacokinetic property (Clearance) for the compound (5 mg/kg iv) was determined in rats. It counts as ADME, organism-based. The note with it: rat, in vivo.
Data set [6] can be described thus: Pharmacokinetic property (t1/2) for the compound ([…] mg/kg iv) was determined in rats. It counts as ADME, organism-based. The note with it: rat, in vivo, 5 mg/kg.
A short description of data set [7]: Solubility at pH 7.4 was determined. The format is physicochemical. Particulars: buffer.
Data set [8] is described as follows: Solubility at pH 5.2 was determined. The format is physicochemical. Particulars: buffer.

Converted amounts (≈) assume the structure as drawn.

With `CC(=O)Nc1oc(-c2cc3ccccc3cc2O)nc1-c1ccccc1`, the solubility in data set [1] is < 5 µg/mL. Moreover, the lipophilicity (logP) in data set [2] is > 4.1.

As for `c1ccc2c(c1)c(-c1cncc(-c3ccsc3)c1)cn2CCCN1CCCCC1`, the Vd in data set [3] was 1.8 L/kg. Moreover, the bioavailability in data set [4] is 28%. In data set [5], this compound had a clearance of 15 mL/min/kg. Besides, in data set [6], the half-life was 1.6 h. Also, the results for the solubility in data set [7] and in data set [8] were < 5 µg/mL and 177 µg/mL (≈ 441 µM), respectively.

As to `c1ccc2c(c1)c(-c1cncc(-c3ccsc3)c1)cn2CCN1CCOCC1`, the Vd in data set [3] came out at 7.2 L/kg. Also, the bioavailability in data set [4] was determined as 35%. In data set [5], this compound yielded a clearance of 65 mL/min/kg. In data set [6], this compound had a half-life of 1.9 h. The results for the solubility in data set [7] and in data set [8] were 5 µg/mL (≈ 12.8 µM) and 24 µg/mL (≈ 61.6 µM), respectively. This compound also gave a logP in data set [2] of 3.3.

For `CN1CCN(CCCn2cc(-c3cncc(-c4ccsc4)c3)c3ccccc32)CC1`, the Vd in data set [3] amounted to 1.7 L/kg. Also, the bioavailability in data set [4] came out at 33%. For the same compound, the clearance in data set [5] was found to be 13 mL/min/kg. Besides, the half-life in data set [6] was 1.8 h. Besides, the solubility in data set [7] was > 205 µg/mL; in data set [8], 18200 µg/mL (≈ 43600 µM). The same compound yielded a logP in data set [2] of 3.7.

The values above are taken from ChEMBL document CHEMBL1136194, “Discovery and evaluation of 3-(5-thien-3-ylpyridin-3-yl)-1H-indoles as a novel class of KDR kinase inhibitors” (Bioorg Med Chem Lett, 2003).
